On to `COc1ccc(-c2cccs2)c2c1c(CCN(C)C)cn2C`, for which the melting point lay in the range of 131 to 133 °C. Regarding `Cc1cn(CCCN2C(=O)c3ccc(Cl)c(Cl)c3C2=O)cn1`, the melting point was in the range of 147 to 151 °C. Regarding `O=C1c2cc3ccccc3cc2OC12CC2`, the melting point was 127 to 129 °C. Under `CNc1cccc(C2C(C(=O)OC)=C(C)NC(C)=C2C(=O)OC)c1` stands 182 to 184 °C. Consider `CN(C)CCC(Cc1ccccc1C(=O)O)c1ccccc1` (configuration not stated), for which the melting point lay in the range of 152 to 154 °C. `CCCCCCOc1ccc(NC(=O)CC(=O)C(C)(C)C)cc1` registered a melting point of 70 to 72 °C. `COc1cccc(C=Cc2nc3c(s2)N(C(C)=O)CCC3)c1OC` returned a melting point of 185 to 187 °C. As for `CN(C(=O)OC(C)(C)C)c1ccc(C#CCCCOS(C)(=O)=O)cc1`, the melting point fell in the range of 85 to 87 °C. Under `CC(C)c1cccc(C(C)C)c1NC(=O)NCC1(SCc2ccccc2)CCCCC1` stands 156 °C; under `COCOc1ccccc1-c1cc(-c2ccc(OC)c(C(=O)O)c2)c(C#N)c(NC(=O)c2cccs2)n1`, 187 to 189 °C; under `O=S1(=O)c2cccc3c(Cl)cc(Cl)c(c23)N1CCCN1CC=C(c2ccccc2)CC1`, 126 °C. The compound `Cc1nc2c(cc1C(=O)O)CCCCC2` came in with a melting point of 167 to 169 °C. In turn, `O=C(O)[C@H](Cc1ccc(OCCc2coc(-c3ccccc3)n2)cc1)NS(=O)(=O)Cc1ccccc1` returned a melting point of 141 to 143 °C. Compound `CCN1CC(=O)Nc2cc(Nc3ncc(Cl)c(Nc4ccccc4S(=O)(=O)C(C)C)n3)c(OC)cc2C1` returned a melting point of 175 °C. Regarding `CCCCc1nc2cccc(C(=O)O)c2n1Cc1ccc(-c2c(-c3nnn[nH]3)oc3ccccc23)cc1`, the melting point was 194 to 195 °C. `O=C(O)C1(CC2CCCC2)CC1` had a melting point of 42 to 45 °C. `O=C1CNC(c2cc(Br)cc(-c3ccsc3)c2)=NN1CC(F)(F)F` registered a melting point of 167 to 169 °C. Under `O=C(c1ccccc1F)C1CCN(CCc2c[nH]c3ccccc23)CC1` stands 106 to 108 °C. `CCOC(=O)c1nc2cccc(F)c2nc1C`: the melting point is 87 to 89 °C. With `CCSc1ccc(-c2cccnc2)c2c1C(=O)CC(C)C2` (configuration not stated) the figure was 140 to 142 °C; with `O=C(O)Cc1cccc(CCNC(=O)C2Cc3ccccc3N2S(=O)(=O)c2ccc(-c3ccccc3C(F)(F)F)cc2)c1` (configuration not stated), 78 °C; with `CCO/C=C/C(=O)Nc1ccc(Br)cc1C`, 163 to 164 °C. Take `COc1ccc(-c2sc3c(c2C)c(=O)c(CO)cn3Cc2ccccc2F)cc1`: the melting point was in the range of 159 to 160 °C. With `CCn1nc(-c2ccc(OC)cc2)cc(C(=O)OC)c1=O`, the melting point was in the range of 76.5 to 77.6 °C. For the compound `C=CN(Cc1ccccc1)C(=O)C(F)(F)C(F)(F)C(F)(F)C(F)(F)C(F)(F)C(F)F`, the melting point fell in the range of 53 to 57 °C. `CCCOC(=O)c1ccc(CCCCOCCCCCNCC(O)c2ccc(O)c(NS(C)(=O)=O)c2)cc1` (configuration not stated) showed a melting point of 74 to 76 °C. `CC(=O)c1sc(N2CCN(CCC3CC3)C2=O)nc1C`: the melting point lay within 82 to 83 °C. Compound `COc1ccc(S(=O)(=O)Nc2ccccc2Nc2ccc(Cl)cc2)cc1` returned a melting point of 127 to 128 °C. With `C[C@@H]1O[C@@]1(Cn1cncn1)c1cc(F)ccc1F` the figure was 69 °C. Under `Cc1cc(C)c(N2c3ccccc3S(=O)(=O)c3ccccc32)c(C)c1` stands 242 to 246 °C. In the case of `CN1CCN(c2cccc3ccc(NC(=O)OCc4ccccc4)cc23)CC1`, the melting point was in the range of 143 to 144 °C. The compound `c1cn(CC2(CCCC3CCCC3)SCCS2)cn1` gave a melting point of 136 to 137 °C.

`COc1ccc(/C=C/C(=O)Nc2ccccc2C(=O)OCC(=O)O)cc1OC` had a melting point of 206 to 209 °C. Under `CCOc1cc(CCC2OC(=O)NC2=O)ccc1OCc1ccccc1` (configuration not stated) stands 143 to 144 °C; under `O=C(O)[C@@H]1C[C@H](OS(=O)(=O)C2CCCCC2)CN1C(=O)c1ccccc1`, 154 to 172 °C; under `CNC(=O)c1ccc(N2CCN(Cc3cc4c(c(C5CC5)c3)OC(C)C(=O)N4)CC2)cc1` (configuration not stated), 256 to 259 °C. Turning to `COC(=O)Cn1c(-c2ccc(Cl)cc2)nc2cccnc21`, the melting point was in the range of 198 to 200 °C. As for `COC(=O)c1ccc2cc(CCCO)oc2c1`, the melting point lay in the range of 63 to 65 °C. With `Clc1ccc(-n2ccc(OCCOCCN3CCCCC3)n2)cc1Cl`, the melting point fell in the range of 126 to 128 °C. With `O=C(NN=C1c2cccc(F)c2SCC1c1ccc(F)cc1)Nc1ccc(C(F)(F)F)cc1` (configuration not stated), the melting point was in the range of 217 to 219 °C. Under `COc1ccc(CSCC2NC(=O)C2NC(=O)OC(C)(C)C)cc1` (configuration not stated) stands 120 to 123 °C; under `CC(C)N1C(=O)C(=O)NC1=NC(=NC(=O)OC(C)(C)C)Nc1ccc(Cl)c(Cl)c1`, 226 °C; under `CCOCc1nc2c(N)nc3cccnc3c2n1CC(C)(C)O`, 157 to 159 °C.

`C/C(=C/C#N)c1ccc2c(c1)C(C)(C)OC(=O)N2` registered a melting point of 213 to 215 °C.

In the case of `NC(=O)c1ccc(-c2ccc3nnn(Cc4ccc5ncccc5c4)c3n2)cc1F`, the melting point fell in the range of 198 to 200 °C. With `CC(C(=O)N1c2ccccc2C(=O)Nc2cccnc21)N1CCN(C)CC1` (configuration not stated), the melting point is 223 to 224 °C. Compound `CN(C)Cc1cccc(-c2cc(C(N)=O)ccc2C(N)=O)c1` came in with a melting point of 162 to 165 °C.

As for `Cc1ccc(C)c(NC(=O)C(C)c2ccc(N)c(N)c2)c1` (configuration not stated), the melting point lay in the range of 120 to 121 °C. With `CCOP(=O)(OCC)C1CCc2c(-n3cccc3)c(C(F)(F)F)cc3[nH]c(=O)c(=O)n1c23` (configuration not stated), the melting point worked out at 268 °C. In turn, `Cc1ccc(C=CC(C#N)=NOS(C)(=O)=O)cc1` gave a melting point of 134 to 135 °C. For `CC(=O)c1ccc(S(=O)(=O)NCCO)cc1`, the melting point is 119 to 121 °C. Consider `O=C(CCCCN1CCCCC1)c1ccc2c(c1)Sc1cc(C(=O)CCCCN3CCCCC3)ccc1O2`, for which the melting point was in the range of 128 to 130 °C. The compound `O=C(CN1CCN(c2ccccc2)CC1)Nc1ccc2c(c1NC(=O)c1ccccc1)C(=O)c1ccccc1C2=O` showed a melting point of 225 to 226 °C. As to `Cn1cc(C2=C(c3c4n(c5ccccc35)CCC(CNC(=O)OC(C)(C)C)C4)C(=O)OC2=O)c2ccccc21` (configuration not stated), the melting point lay in the range of 124 to 126 °C. For the compound `O=C(O)CCCCNC(=O)c1ccc(Cl)cc1O`, the melting point lay within 140 to 141 °C. With `CC(C)c1cccc(C(C)C)c1NC(=O)CNC(c1ccccc1)c1cccc(CO)c1` (configuration not stated) the figure was 57 to 62 °C.

`O=C(Nc1ccc(-n2nc(C3CC3)cc2C2CC2)cc1)c1ccccc1` came in with a melting point of 133 to 138 °C. In turn, `CCCc1ccc(OCc2ccc(OCc3nc(-c4ccccc4)oc3C)cc2)cc1OCC(=O)O` displayed a melting point of 162 to 163 °C. In the case of `O=C(c1ccccc1)N1CCn2c(CN3CCCCC3)ccc2C1`, the melting point lay in the range of 95 to 96 °C.

`N#Cc1cc(Br)c(O)c(Cc2cc(F)cc(Cc3cc(C#N)cc(Br)c3O)c2O)c1`: the melting point worked out at 240 °C.

For `COc1cc2c(c(-c3ccccc3F)c1)OC(CN)C2` (configuration not stated), the melting point was > 250 °C. Under `O=C(C=c1sc2n(c1=O)Cc1ccccc1N=2)NC1CCCCC1` stands 287 to 288 °C; under `CC(=O)c1ccc(-c2cc(-c3c(-c4ccccn4)nc4ccccn34)ccn2)cc1`, 214 °C; under `CCOc1ccc(CC(NC(C)=O)C(=O)O)cc1OCC` (configuration not stated), 149 to 151 °C. With `COc1ccc(C(=O)CC(=O)C(F)F)cc1F` the figure was 70 to 72 °C; with `CC(=O)NC(C(=O)Nc1ccc(C(=O)O)cc1)c1ccc2c(c1)C(C)(C)CCC2(C)C` (configuration not stated), 258 to 259 °C; with `Cc1ccc(C2=C(C(=O)O)N(CC(C)C)Cc3ccc(OCc4ccccc4)cc32)cc1`, 153 to 154 °C. `O=[N+]([O-])C(CSc1cccc(Cl)c1)=C1NCCN1Cc1ccc(Cl)nc1` yielded a melting point of 143 °C. Take `C=CCN1C(=O)C2CCc3c(ccc(OC)c3OC)C2C1=O` (configuration not stated): the melting point was 147 to 148 °C. As for `COc1cc(COc2cc(CO)n(-c3ccccc3)n2)ccc1OCc1nc(-c2ccccc2)oc1C`, the melting point lay within 146 to 147 °C. `CCCCN(Cc1ccc(-c2ccccc2-c2nnn[nH]2)cc1)c1nc(SC)ncc1C(=O)OCC` had a melting point of 161 to 163 °C. With `NC(=O)CC(=O)NCCCOc1cccc(CN2CCCCC2)c1` the figure was 85.3 to 88.3 °C; with `CC(C)(CCCCOCCCc1ccccc1)NCc1c(CO)ccc(O)c1CO`, 67 to 69 °C. With `CC12CCC(=O)C(N)=C1CCC1C2CCC2(C)C(OC3CC3)CCC12` (configuration not stated) the figure was 85 to 88 °C; with `COc1ccc(-n2c(=O)oc3ccc(-c4ccc(F)cc4F)cc3c2=O)cc1OC`, 198 to 199 °C; with `CCn1c(-c2ccc(N)cc2)n[nH]c1=S`, 240 to 250 °C.

In the case of `Cc1cc(Br)ccc1C(=O)N=CN(C)C`, the melting point is 87 to 89 °C. As to `COc1ccc2c(c1)C(=O)C(=Cc1cccc([N+](=O)[O-])c1)C(C)(C)O2`, the melting point was in the range of 103 to 105 °C. With `C/C(=N\OC(=O)[C@@H]1CCCN(C(=O)OC(C)(C)C)C1)[C@H]1CC[C@H]2[C@@H]3CCC4=CC(=O)CC[C@]4(C)[C@H]3CC[C@]12C` the figure was 79 to 81 °C; with `COc1cc2c(cc1O)CCC(=O)N2Cc1cc(OC)c(OC)c(OC)c1`, 157 to 158 °C; with `CC(=O)Nc1cc(Cl)c(C)c(Cl)c1O`, 175 to 176 °C. In turn, `Cc1ccc(N)cc1Nc1nccc(-c2cccnc2)n1` returned a melting point of 138 to 140 °C. Turning to `CN1Cc2cc(C(O)CN3CCC(COc4ccccc4)CC3)ccc2NC1=O` (configuration not stated), the melting point amounted to 205 °C. Compound `CCCCOc1ccc(-c2ncc(C(=O)OCC)c(Cl)n2)cc1` came in with a melting point of 79 °C. Consider `O=Cc1ccc(OCc2coc(-c3ccccc3)n2)cc1`, for which the melting point lay within 94 to 96 °C. With `CCOC(=O)c1cc2c(o1)CNCC2(O)c1ccc(C)cc1` (configuration not stated) the figure was 194 to 196 °C; with `CC(C)c1c(C(=O)O)cnn1-c1ccc(Cl)cc1`, 211 to 212 °C.

As a reminder, the melting point is the temperature of the solid-liquid transition.
